According to EPA's ToxValDB 9.5 (doi:10.2903/j.efsa.2013.3131):

Assays:
Oryctolagus sp. = details: reproduction developmental; body weight
Rattus norvegicus = details: for LD50: acute, oral, mortality
Pleurozium sp. = details: acute; duration: 96 hours; biomass
Pimephales promelas = details: chronic/long-term; duration: 34 days; other
Oncorhynchus mykiss = details: acute; duration: 96 hours; mortality
Daphnia magna = details: chronic/long-term; duration: 21 days; reproduction
Bibionidae = details: chronic/long-term; other
Apis mellifera = details: acute, mortality
Neomysis kadiakensis = details: acute; duration: 96 hours; mortality
Landoltia sp. = details: chronic/long-term; duration: 7 days; biomass

Row | Compound | NOAEL (Oryctolagus sp.) | LD50 (Rattus norvegicus) | NOAEL (Rattus norvegicus; subchronic, duration: 90 days) | NOEC (Pleurozium sp.) | LC50 (Colinus virginianus; acute, oral, diet, mortality) | LD50 (Colinus virginianus; acute, oral, mortality) | NOEC (Colinus virginianus; reproduction developmental) | NOEC (Pimephales promelas) | NOEC (Oncorhynchus mykiss) | NOEC (Daphnia magna) | NOEC (Bibionidae) | NOAEL (Rattus norvegicus; chronic, clinical signs) | NOAEL (Rattus norvegicus; chronic, duration: 2 years, F, ophthalmoscopic examination) | NOAEL (Rattus norvegicus; subchronic, duration: 90 days, ophthalmoscopic examination) | LD50 (Apis mellifera; dermal) | LD50 (Apis mellifera; oral, unspecified) | NOEC (Neomysis kadiakensis) | LC50 (Tagia sp.; acute, duration: 14 days, mortality) | NOEC (Tagia sp.; chronic/long-term, duration: 28 days, reproduction) | NOEC (Landoltia sp.)
1 | CS(=O)(=O)c1ccc(C(=O)C2C(=O)C(O)CC(O)C2=O)c(Cl)c1COCC(F)(F)F (configuration not stated) | 1 mg/kg-day | > 2000 mg/kg-day | 12.7 mg/kg-day | – | – | – | – | – | – | – | – | – | – | – | – | – | – | – | – | –
2 | CS(=O)(=O)c1ccc(C(=O)C2C(=O)CCCC2=O)c(Cl)c1COCC(F)(F)F [Tembotrione] | 1 mg/kg-day | > 2000 mg/kg-day | – | 0.2 mg/L | > 1790 mg/kg-day | > 2250 mg/kg-day | 22.2 mg/kg-day | 0.604 mg/L | 100 mg/L | 5 mg/L | 2 mg/L | 0.8 mg/kg-day | 0.04 mg/kg-day | 0.07 mg/kg-day | > 100 µg/piece | > 92.8 µg/piece | 0.046 mg/L | 1000 mg/kg | 1.25 mg/kg | 0.0032 mg/L
